The text below walks through data of article PMC8011931, “Identification, Structure–Activity Relationship, and Biological Characterization of 2,3,4,5-Tetrahydro-1H-pyrido[4,3-b]indoles as a Novel Class of CFTR Potentiators” (Journal of Medicinal Chemistry, 2020).

The assay concerns the target T1, CFTR (Homo sapiens, UniProt P13569).
T1 construct: primary human bronchial epithelial (HBE) cells, from non-CF individuals; endogenous in cells; host or cells: primary human bronchial epithelial cells from non-CF individuals
In words: Short-circuit current recordings on primary HBE cells from non-CF individuals. The format is cell-based. The text has this: Subsequently, the ability of compounds to elicit CFTR-mediated chloride secretion was verified on primary human bronchial epithelial (HBE) cells, from non-CF individuals, in short-circuit current experiments. In this respect, it should be noticed that potentiators are also able to stimulate wild-type CFTR, provided that a submaximal cAMP-dependent stimulation is applied.[20],[22] Accordingly, cells were stimulated with a submaximal concentration of the cAMP analogue, CPT-cAMP, followed by increasing concentrations of the potentiator hit.[20],[22]
Finally, potentiator 39 and VX-770 were further evaluated in primary HBE cells from non-CF individuals, using short-circuit current measurements, to assess the ability of compounds to maximally activate CFTR function in the presence of a submaximal cAMP stimulation. After the addition of amiloride to inhibit sodium absorption through the ENaC channel, the potentiators were added at the maximal effective concentration (1 μM) after which epithelia were stimulated with a submaximal concentration of CPT-cAMP (5 μM), followed by a maximal concentration of the cAMP analogue (100 μM) (Figure 8). We then measured the extent of CFTR-mediated chloride current elicited by submaximal cAMP stimulation in the presence of a potentiator and compared it to total CFTR-mediated chloride current, determined as the current inhibited by CFTR inhibitor-172. In parallel, other epithelia were stimulated only with the two concentrations of the cAMP analogue, in the absence of a potentiator.
Primary bronchial epithelial cells were cultured as previously described.[58] In brief, epithelial cells were cultured in a serum-free medium (LHC9 mixed with RPMI 1640, 1:1) supplemented with hormones and supplements to support cell number amplification. Then, the cells were seeded at high density on porous membranes (500,000 cells for 1 cm^2 Snapwell inserts, for Ussing chamber studies; 200,000 cells for 0.33 cm^2 Mini-Transwell inserts, for TEER/PD measurements). After 24 h, the serum-free medium was replaced with Dulbecco’s modified Eagle’s medium (DMEM)/Ham’s F12 containing 2% fetal bovine serum (FBS) plus hormones and supplements. Differentiation of cells to form a tight epithelium was monitored by measuring transepithelial electrical resistance and potential difference with an epithelial voltohmmeter (EVOM1, World Precision Instruments). […]
Differentiated bronchial epithelia on Snapwell inserts were mounted in a Ussing chamber with internal fluid circulation. […] The short-circuit current was recorded with a PowerLab 4/25 (ADInstruments) analog-to-digital converter connected to a personal computer.

T1 sequence (P13569 whole entry): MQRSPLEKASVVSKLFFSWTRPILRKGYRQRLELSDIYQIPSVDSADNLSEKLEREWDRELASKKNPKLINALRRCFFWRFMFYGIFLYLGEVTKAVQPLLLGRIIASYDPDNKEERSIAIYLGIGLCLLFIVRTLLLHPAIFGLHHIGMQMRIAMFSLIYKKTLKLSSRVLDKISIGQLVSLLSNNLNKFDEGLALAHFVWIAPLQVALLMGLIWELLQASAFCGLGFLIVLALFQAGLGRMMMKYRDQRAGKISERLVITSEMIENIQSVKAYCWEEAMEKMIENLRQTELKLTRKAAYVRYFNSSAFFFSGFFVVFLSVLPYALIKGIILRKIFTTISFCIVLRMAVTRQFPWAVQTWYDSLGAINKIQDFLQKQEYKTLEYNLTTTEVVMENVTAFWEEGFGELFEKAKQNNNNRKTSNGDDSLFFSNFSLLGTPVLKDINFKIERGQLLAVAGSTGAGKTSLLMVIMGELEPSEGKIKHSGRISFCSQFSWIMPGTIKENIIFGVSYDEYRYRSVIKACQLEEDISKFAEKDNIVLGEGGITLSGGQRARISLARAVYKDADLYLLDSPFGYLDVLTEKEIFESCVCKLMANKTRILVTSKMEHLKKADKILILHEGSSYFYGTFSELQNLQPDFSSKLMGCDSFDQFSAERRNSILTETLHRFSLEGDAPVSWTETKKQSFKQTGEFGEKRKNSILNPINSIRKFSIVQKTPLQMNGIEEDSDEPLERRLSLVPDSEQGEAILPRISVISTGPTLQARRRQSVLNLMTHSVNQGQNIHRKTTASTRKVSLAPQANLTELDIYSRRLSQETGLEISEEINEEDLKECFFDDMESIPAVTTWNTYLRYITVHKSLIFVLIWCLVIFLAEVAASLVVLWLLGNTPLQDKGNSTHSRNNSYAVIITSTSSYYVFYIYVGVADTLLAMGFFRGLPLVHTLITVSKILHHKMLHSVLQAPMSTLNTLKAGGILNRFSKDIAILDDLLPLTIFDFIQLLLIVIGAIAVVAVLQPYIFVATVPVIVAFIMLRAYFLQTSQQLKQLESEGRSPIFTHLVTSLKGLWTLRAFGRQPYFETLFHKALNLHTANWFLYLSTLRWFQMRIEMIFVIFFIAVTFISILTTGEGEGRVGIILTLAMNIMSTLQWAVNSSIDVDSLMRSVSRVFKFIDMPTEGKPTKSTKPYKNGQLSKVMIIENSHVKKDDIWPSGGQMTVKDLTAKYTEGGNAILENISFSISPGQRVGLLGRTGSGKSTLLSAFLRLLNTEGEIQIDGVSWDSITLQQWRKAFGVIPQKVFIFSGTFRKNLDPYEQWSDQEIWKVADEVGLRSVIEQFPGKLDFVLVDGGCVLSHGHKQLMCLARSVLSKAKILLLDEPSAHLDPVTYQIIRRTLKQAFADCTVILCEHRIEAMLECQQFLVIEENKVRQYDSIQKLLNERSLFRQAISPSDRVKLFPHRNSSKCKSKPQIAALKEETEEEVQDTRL

Consider `Cc1ccc(F)c2[nH]c3c(c12)CN(C(=O)c1cc(C(F)(F)F)[nH]n1)[C@H](C)C3` [Compound 39, (R)-(6-Fluoro-3,9-dimethyl-1,3,4,5-tetrahydro-2H-pyrido[4,3-b]indol-2-yl)-(5-(trifluoromethyl)-1H-pyrazol-3-yl)methanone], for which the “comparison of effectiveness of potentiators” value (1 μM for both compounds, Figure 8B) is recorded as “similarly effective”. For the same compound, for the setting “potentiator 1 μM, CPT-cAMP 5 μM, versus no potentiator”, the “increase of the fraction of CFTR-mediated chloride current activated by submaximal cAMP stimulation” value is “more than 2 fold”.
